Tests used:
spinal release of PGE2 = test: Intrathecal dialysis and PGE2 assay; type: in vivo, rat; conditions: 3 mg/kg IP pretreatment
Description: For spinal drug injections, lumbar catheters were implanted in rats under isoflurane anesthesia according to a modification of the procedure described by Yaksh (Yaksh and Rudy, supra, 1976). A polyethylene catheter (PE-5; Spectranetics, 0.014 in OD) was inserted into the intrathecal space and advanced to the rostral edge of the lumbar enlargement through an incision in the atlanto-occipital membrane. Five days after implantation rats were entered into the study. In separate experiments to assess spinal prostaglandins release, rats were prepared with lumbar loop dialysis catheters with three lumens, as previously described, see (Yaksh, et al., supra, 2001).
In brief, the outer two lumens were connected to a length of dialysis tubing (10 Kda cut off). The catheter was then implanted intrathecally using the same technique as described above for the intrathecal catheter. A three-day interval was allowed to elapse prior to including the animal in a study. In all cases, the exclusion criteria were i) presence of any neurological sequelae, ii) 20% weight loss after implantation, or iii) catheter occlusion.
Spinal dialysis experiments to define the spinal release of PGE2 were conducted in unanesthetized rats 3 days after dialysis catheter implantation. A syringe pump (Harvard, Natick, Mass.) was connected and dialysis tubing was perfused with artificial cerebro spinal fluid (ACSF) at a rate of 10 μl/min. The ACSF contained (mM) 151.1 Na^+, 2.6 K^+, 0.9 Mg^2+, 1.3 Ca^2+, 122.7 Cl^−, 21.0 HCO3, 2.5 HPO4 and 3.5 dextrose and was bubbled with 95% O2/5% CO2 before each experiment to adjust the final pH to 7.2. The efflux (20 min per fraction) was collected in an automatic fraction collector (Eicom, Kyoto, Japan) at 4° C. […] The concentration of PGE2 in spinal dialysate was measured by ELISA using a commercially available kit (Assay Designs 90001, Assay Designs, Ann Arbor, Mich.). The antibody is selective for PGE2 with less than 2.0% cross-reactivity to PGF1, PGF2, 6-ketoPGF1, PGA2 or PGB2, but cross-reacts with PGE1 and PGE3.

[1] = test system: carrageenan-induced thermal hyperalgesia; test: Carrageenan-induced thermal hyperalgesia, paw withdrawal latency; type: in vivo, rat
Description: Male Holtzman Sprague-Dawley rats (300-350 g; Harlan Industries) were individually housed and maintained on a 12-hr light/dark cycle with free access to food and water. For spinal drug injections, lumbar catheters were implanted in rats under isoflurane anesthesia according to a modification of the procedure described by Yaksh (Yaksh and Rudy, supra, 1976). A polyethylene catheter (PE-5; Spectranetics, 0.014 in OD) was inserted into the intrathecal space and advanced to the rostral edge of the lumbar enlargement through an incision in the atlanto-occipital membrane. Five days after implantation rats were entered into the study. In separate experiments to assess spinal prostaglandins release, rats were prepared with lumbar loop dialysis catheters with three lumens, as previously described, see (Yaksh, et al., supra, 2001). Thermal hyperalgesia. Two approaches were employed to initiate a hyperalgesic state. An inflammation-evoked thermal hyperalgesia was induced by subcutaneous injection of 2 mg of carrageenan (Sigma, St. Louis, Mo., 100 μl of […] solution (w/v) in physiological saline) into the plantar surface of the left hind paw. To assess the thermally-evoked paw-withdrawal response, a commercially available device modeled after that described by Hargreaves and colleagues (Hargreaves, Pain, 32:77-88, 1988) was used (see, Dirig and Yaksh, Neurosci. Lett., 220:93-96, 1996; Dirig, et al., J. Neurosci. Methods, 76:183-191, 1997). In brief, the device consisted of a glass surface (maintained at 25° C.) on which the rats are placed individually in Plexiglas cubicles (9×22×25 cm). The thermal nociceptive stimulus originated from a focused projection bulb positioned below the glass surface. The stimulus was delivered separately to either hind paw of each test subject with the aid of an angled mirror mounted on the stimulus source. A timer was actuated with the light source, and latency was defined as the time required for the paw to show a brisk withdrawal as detected by photodiode motion sensors that stop the timer and terminate the stimulus. Paw withdrawal latencies (PWL) were assessed prior to any treatment (control) and at intervals after treatment. Left (injured) and right (uninjured) paw withdrawal latencies were assessed and plotted versus time. In addition, difference latency scores (uninjured-injured) were calculated and the average withdrawal latency over the post-injection observation intervals are calculated for comparison between treatment groups. Drugs were delivered systemically (IP) or spinally (IT). Intraperitoneal drugs were delivered uniformly in doses prepared in volumes of 0.5 ml/kg. Drugs injected IT were administered in a total volume of […] followed by a 10 μl flush using vehicle.

SMILES | IT SP-evoked release of PGE2 in spinal dialysate (spinal release of PGE2) | antihyperalgesic effect by pretreatment interval ([1]; 3 mg/kg IP, 15 min before carrageenan) | antihyperalgesic effect by pretreatment interval ([1]; 3 mg/kg IP, 30 min before carrageenan) | reduction of carrageenan thermal hyperalgesia ([1]; 3 mg/kg IP, 30 min pretreatment) | antihyperalgesic effect by pretreatment interval ([1]; 3 mg/kg IP, 180 min before carrageenan) | antihyperalgesic effect by pretreatment interval ([1]; 3 mg/kg IP, 360 min before carrageenan) | dose dependency of anti-hyperalgesic effect ([1]; IP, 0.2-3 mg/kg) | ED50 ([1]; Rattus norvegicus, IP, carrageenan thermal hyperalgesia, read-out: IP ED50, dose that reduced the hyperalgesia by 50%) | attenuation of carrageenan thermal hyperalgesia ([1]; intrathecal 30 μg/10 μL, 15 min pretreatment) | melting point
CCC(=O)C(=O)NCCCC(=O)OC [AX010] | significant increase as compared to vehicle only |  |  |  |  |  |  |  |  | 
CCCCCCCCCCCCCCC(=O)C(=O)NCCCC(=O)OCC [AX048, Ethyl 4-[(2-oxohexadecanoyl)amino]butanoate] | significant inhibitory effect upon PGE2 synthesis and release | minimal effects | peak effects | reduced the thermal hyperalgesia | effects persisted | no different from the control | dose-dependent | 1.2 mg/kg | attenuated the thermal hyperalgesia | 63 to 64 °C
